Measured values: ChEMBL document CHEMBL1201862, “PubChem BioAssay data set” (2004)
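Compound exposure: 48 hours, 5 concentrations, 96-well plates. The concentration for 50% growth inhibition is given as GI50.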 Calls of active or inactive are those of the source. Cut-off read from the data, not from the text of the source: active = GI50 up to about 1.1 µM and inactive = higher.

What was measured:
Experiment in all cases: NCI-60 cell line screen, 48 h
SNB-19 = tested on: SNB-19
RPMI-8226 = tested on: RPMI-8226
NCI-H522 = tested on: NCI-H522
NCI-H460 = tested on: NCI-H460
SNB-75 = tested on: SNB-75
SW-620 = tested on: SW-620
HCT-116 = tested on: HCT-116
UACC-62 = tested on: UACC-62
COLO 205 = tested on: COLO 205
HCC 2998 = tested on: HCC 2998
A549 = tested on: A549
ACHN = tested on: ACHN
U-251 = tested on: U-251
K562 = tested on: K562
UACC-257 = tested on: UACC-257
HOP-92 = tested on: HOP-92
KM12 = tested on: KM12
OVCAR-3 = tested on: OVCAR-3

Measured: GI50

O=C1c2ccccc2C(=O)N1C/C=N/NS(=O)(=O)c1ccc(Cl)cc1
inactive: SNB-19 > 100 µM | RPMI-8226 > 100 µM | NCI-H522 > 100 µM | NCI-H460 > 100 µM | SNB-75 66.1 µM | SW-620 > 100 µM | HCT-116 > 100 µM | UACC-62 > 100 µM | COLO 205 > 100 µM | HCC 2998 > 100 µM | A549 > 100 µM | ACHN > 100 µM | U-251 > 100 µM | K562 > 100 µM | UACC-257 > 100 µM

O=C(O)/C(=C\c1ccccc1Cl)S(=O)(=O)c1ccccc1
inactive: SNB-19 > 100 µM | RPMI-8226 > 100 µM | NCI-H522 > 100 µM | NCI-H460 > 100 µM | SNB-75 > 100 µM | SW-620 > 100 µM | HCT-116 > 100 µM | UACC-62 > 100 µM | HOP-92 > 100 µM | COLO 205 > 100 µM | HCC 2998 > 100 µM | A549 > 100 µM | ACHN > 100 µM | U-251 > 100 µM | K562 > 100 µM | UACC-257 > 100 µM | KM12 > 100 µM

COc1ccc2cc3n(c2c1)CCc1cc(OC)c(OC)cc1-3
inactive: SNB-19 > 100 µM | NCI-H522 > 100 µM | NCI-H460 > 100 µM | SW-620 > 100 µM | UACC-62 71.8 µM | HOP-92 > 100 µM | COLO 205 > 100 µM | HCC 2998 > 100 µM | A549 > 100 µM | ACHN > 100 µM | U-251 77.1 µM | K562 > 100 µM | UACC-257 92.3 µM | KM12 > 100 µM

O=C(NOC(=O)c1ccc([N+](=O)[O-])cc1)c1ccc(Cl)cc1
inactive: SNB-19 > 100 µM | RPMI-8226 65.2 µM | NCI-H522 27 µM | NCI-H460 > 100 µM | SNB-75 15 µM | SW-620 38 µM | HCT-116 > 100 µM | UACC-62 36.2 µM | HOP-92 27.4 µM | COLO 205 > 100 µM | HCC 2998 > 100 µM | A549 > 100 µM | ACHN 37.6 µM | U-251 76.7 µM | K562 21.6 µM | UACC-257 > 100 µM | KM12 > 100 µM

CCOC(=O)COc1cccc2c1C(=O)CCO2
inactive: SNB-19 > 100 µM | RPMI-8226 > 100 µM | NCI-H522 > 100 µM | NCI-H460 > 100 µM | OVCAR-3 > 100 µM | SW-620 > 100 µM | HCT-116 > 100 µM | UACC-62 > 100 µM | COLO 205 > 100 µM | HCC 2998 > 100 µM | A549 > 100 µM | ACHN > 100 µM | U-251 > 100 µM | K562 > 100 µM | UACC-257 > 100 µM | KM12 > 100 µM

c1ccc2c(OCCSCCCCCCCCCCSCCOc3cccc4ccccc34)cccc2c1
inactive: SNB-19 > 100 µM | RPMI-8226 > 100 µM | NCI-H522 > 100 µM | NCI-H460 > 100 µM | SNB-75 > 100 µM | OVCAR-3 > 100 µM | SW-620 > 100 µM | UACC-62 > 100 µM | HOP-92 > 100 µM | COLO 205 > 100 µM | HCC 2998 > 100 µM | A549 > 100 µM | ACHN > 100 µM | U-251 > 100 µM | K562 > 100 µM | UACC-257 > 100 µM | KM12 > 100 µM

C/C(=C\Cc1cc(O)ccc1O)CCc1c(C)c(O)c(O)c(C=O)c1C [PANICEIN C]
inactive: SNB-19 35.2 µM | RPMI-8226 17.4 µM | NCI-H522 5.24 µM | NCI-H460 23.8 µM | SNB-75 33.3 µM | OVCAR-3 21.2 µM | SW-620 35.6 µM | HCT-116 19.1 µM | HOP-92 15.7 µM | COLO 205 18.6 µM | HCC 2998 47.9 µM | A549 30.4 µM | ACHN 20.3 µM | U-251 18.6 µM | K562 > 100 µM | KM12 20.3 µM

Nc1ccc2nc(NCc3ccc(F)cc3)cnc2c1
inactive: SNB-19 44.5 µM | RPMI-8226 > 100 µM | NCI-H522 > 100 µM | NCI-H460 > 100 µM | SNB-75 29.2 µM | OVCAR-3 > 100 µM | SW-620 > 100 µM | HCT-116 > 100 µM | UACC-62 > 100 µM | COLO 205 > 100 µM | HCC 2998 > 100 µM | A549 > 100 µM | ACHN > 100 µM | U-251 > 100 µM | K562 > 100 µM | KM12 > 100 µM

COc1ccc(CC2NCCc3cc(OC)c(OC)cc32)cc1 (stereo unspecified)
inactive: SNB-19 > 100 µM | RPMI-8226 > 100 µM | NCI-H522 > 100 µM | NCI-H460 > 100 µM | SNB-75 > 100 µM | OVCAR-3 > 100 µM | SW-620 > 100 µM | HCT-116 > 100 µM | UACC-62 > 100 µM | HOP-92 57.4 µM | COLO 205 > 100 µM | HCC 2998 > 100 µM | A549 > 100 µM | ACHN > 100 µM | U-251 > 100 µM | UACC-257 > 100 µM | KM12 > 100 µM

CS(=O)(=O)NNS(=O)(=O)c1ccccc1
inactive: SNB-19 > 100 µM | RPMI-8226 > 100 µM | NCI-H522 > 100 µM | NCI-H460 > 100 µM | SNB-75 > 100 µM | SW-620 > 100 µM | HCT-116 > 100 µM | UACC-62 > 100 µM | COLO 205 > 100 µM | HCC 2998 > 100 µM | A549 > 100 µM | ACHN > 100 µM | U-251 > 100 µM | K562 > 100 µM | UACC-257 > 100 µM | KM12 > 100 µM

COc1cccc(C2N3CCCCC3[C@@H]3c4[nH]c5ccccc5c4CCN23)c1OC (stereo partly specified)
inactive: SNB-19 11.9 µM | RPMI-8226 18.7 µM | NCI-H460 19.2 µM | OVCAR-3 13.1 µM | SW-620 17.3 µM | HCT-116 17.3 µM | UACC-62 11.6 µM | HOP-92 15.7 µM | COLO 205 15.2 µM | A549 15.8 µM | ACHN 15.2 µM | U-251 17.2 µM | K562 14.7 µM | UACC-257 15.9 µM

CCOC(=O)/C(=C/c1ccc(C(=O)OC)cc1)N(CC)CC
inactive: SNB-19 54.5 µM | RPMI-8226 42.5 µM | NCI-H522 37.8 µM | OVCAR-3 22.4 µM | SW-620 35.3 µM | HCT-116 37.2 µM | UACC-62 53.5 µM | HOP-92 49.9 µM | COLO 205 70.1 µM | HCC 2998 99.5 µM | A549 24.5 µM | ACHN 60.5 µM | U-251 42 µM | K562 26.2 µM | UACC-257 57.3 µM | KM12 41.3 µM

CCCCNS(=O)(=O)c1ccc(-c2ccc3c(c2)-c2ccc(S(=O)(=O)NCCCC)cc2S3(=O)=O)cc1
inactive: RPMI-8226 27.9 µM | NCI-H522 14.5 µM | NCI-H460 10.4 µM | OVCAR-3 24.9 µM | SW-620 15.2 µM | HCT-116 14.9 µM | UACC-62 13.2 µM | HOP-92 19.3 µM | COLO 205 25.3 µM | HCC 2998 > 100 µM | A549 14 µM | ACHN 21.6 µM | U-251 23 µM | K562 3.03 µM | UACC-257 13.1 µM | KM12 22.9 µM

CC1=C(C(=O)Nc2ccccc2C)C(c2ccccc2O)C(C(=O)Nc2ccccc2C)=C(C)N1
inactive: SNB-19 23.4 µM | RPMI-8226 20.3 µM | NCI-H460 17.1 µM | SNB-75 24.5 µM | OVCAR-3 17.3 µM | SW-620 33 µM | HCT-116 18.4 µM | UACC-62 15.8 µM | HOP-92 51.4 µM | HCC 2998 15.9 µM | A549 33.7 µM | ACHN 22.3 µM | K562 25.2 µM | UACC-257 22 µM | KM12 14.7 µM

[N-]=[N+]=NCC(O)Cn1cnc2c(NC(=O)c3ccccc3)ncnc21 (stereo unspecified)
inactive: SNB-19 > 100 µM | RPMI-8226 > 100 µM | NCI-H522 > 100 µM | NCI-H460 > 100 µM | SNB-75 > 100 µM | SW-620 43.8 µM | HCT-116 > 100 µM | UACC-62 > 100 µM | HOP-92 > 100 µM | COLO 205 27.8 µM | HCC 2998 > 100 µM | A549 > 100 µM | ACHN > 100 µM | U-251 > 100 µM | K562 79.4 µM | UACC-257 > 100 µM | KM12 > 100 µM

CC#CC(OCC)(OCC)OCC
inactive: SNB-19 > 100 µM | RPMI-8226 > 100 µM | NCI-H522 53.2 µM | NCI-H460 81.8 µM | SNB-75 > 100 µM | OVCAR-3 > 100 µM | HCT-116 > 100 µM | UACC-62 > 100 µM | HOP-92 > 100 µM | COLO 205 57.1 µM | HCC 2998 > 100 µM | A549 > 100 µM | ACHN > 100 µM | U-251 > 100 µM | K562 > 100 µM | UACC-257 > 100 µM | KM12 > 100 µM

CC/C(=N/O)c1ccc2[nH]c3c(C)cc([N+](=O)[O-])c(C)c3c2c1
inactive: SNB-19 > 100 µM | RPMI-8226 52.7 µM | NCI-H522 22.9 µM | NCI-H460 39.2 µM | SNB-75 57.3 µM | OVCAR-3 36.1 µM | SW-620 84.7 µM | HCT-116 41.8 µM | COLO 205 71.4 µM | HCC 2998 83.8 µM | A549 17.1 µM | ACHN 25.1 µM | K562 20.1 µM | UACC-257 95.1 µM | KM12 37.4 µM
